# Source: patent US11883413B2, “Inhibition of thymine DNA glycosylase in the treatment of cancer” (Institute For Cancer Research, priority 2013, dated 2024)
# Key:
# cancer cells = test: 5caC levels on chemotherapeutic treatment combined with TDG downregulation/inhibition; type: cell-based; conditions: for 5-carboxylcytosine levels, TDG inhibitor combined with temozolomide: combined with temozolomide treatment
# Text: Vincristin is an inhibitor of mitosis that arrests cells in metaphase; it is used as a chemotherapeutic agent for leukemia/lymphoma and melanoma.
# SK28 cells = test: MTS cell viability assay; type: cell-based; conditions: for cell viability of SK28 cells: concentration-dependent, quadruplicate
# Protocol: (§1) Tests were conducted in quadruplicate.
# TDG [1] = target: T1, TDG (Homo sapiens, UniProt Q13569); test: standard (conventional) radioactive-based glycosylase assay; type: biochemical; conditions: tested at 100 nM, 10 μM and 1 mM
# Text: (§2) (A) Schematic of the molecular beacon assay for G:T repair.
# (§3) This assay was optimized for a 96-well and 384-well format. Upon screening the ICCB known bioactive library (approximately 500 compounds) and the Johns Hopkins clinical compound library (approximately 1500 drugs), eighteen and fourteen candidates, respectively (Tables 1 and 2) were identified. Some of these compounds confirmed TDG inhibition in a standard, radioactive-based glycosylase assay (FIG. 19).
# TDG [2] = target: T1, TDG; test: TDG glycosylase activity in vitro (FIG. 24-25); type: biochemical
# SK28 melanoma cells = test: 5-carboxylcytosine (5caC) immunofluorescence staining of cells; type: cell-based; conditions: SK28 melanoma cells treated with compound
# SK28 MEL melanoma cells = test: clonogenic assay; type: cell-based
# Protocol: as §1
# [3] = test system: LNCaP prostate cancer cells; test: MTS assay, prostate cancer cells; type: cell-based
# Protocol: (§4) The TDG inhibitors, juglone and closantel, were tested for their ability to kill PC3 and LNCaP prostate cancer cells.
# [4] = test system: PC3 prostate cancer cells; test: MTS assay, prostate cancer cells; type: cell-based
# Protocol: as §4
# [5] = test system: LNCaP prostate cancer cells; test: clonogenic assay, prostate cancer cells; type: cell-based
# Protocol: as §4
# [6] = test system: PC3 prostate cancer cells; test: clonogenic assay, prostate cancer cells; type: cell-based
# Protocol: as §4
# TDG [7] = target: T1, TDG; test: molecular beacon qPCR-based assay of TDG glycosylase activity (G:T / G:U repair), library screen; type: biochemical; conditions: 0, 5, 50 and 500 μg/ml
# Protocol: as §2
# In the folded hairpin substrate, the fluorescence of 6-FAM, used as fluorescent label at the 5′ end, is quenched by a dabsyl “black hole” moiety at the 3′ end. Upon removal of the mismatched T or U by TDG, and incision of the resulting apurinic/apyrimidinic (AP site) by APE, a short oligonucleotide containing 6-FAM was released. The resulting fluorescence was monitored by real-time qPCR over a 2-hour incubation period at 37° C., providing a sensitive and quantitative measurement of repair activity.
# as §3
# [8] = combined with TDG downregulation (C8)
# T1 sequence (Q13569 whole entry): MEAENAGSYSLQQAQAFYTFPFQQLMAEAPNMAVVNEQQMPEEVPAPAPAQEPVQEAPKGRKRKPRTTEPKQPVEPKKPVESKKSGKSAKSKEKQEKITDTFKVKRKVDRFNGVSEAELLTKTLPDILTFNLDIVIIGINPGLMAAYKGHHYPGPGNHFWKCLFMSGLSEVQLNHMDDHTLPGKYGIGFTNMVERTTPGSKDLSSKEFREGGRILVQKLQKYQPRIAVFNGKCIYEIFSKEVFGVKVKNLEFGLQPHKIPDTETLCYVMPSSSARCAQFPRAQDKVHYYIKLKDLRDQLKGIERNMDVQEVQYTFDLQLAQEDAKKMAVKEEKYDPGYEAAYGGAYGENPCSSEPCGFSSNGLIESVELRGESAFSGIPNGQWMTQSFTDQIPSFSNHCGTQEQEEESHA
SMILES,"5caC levels, vincristine combined with TDG downregulation (cancer cells; [8])","5caC levels, vincristine alone (cancer cells; in the absence of TDG downregulation (pLKO))","SK28 cell viability, cisplatin combined with TDG downregulation (SK28 cells; [8])","inhibition of TDG activity, conventional glycosylase assay (TDG [1])",inhibition of TDG glycosylase activity in vitro (TDG [2]),5caC staining in the nuclei of cells in culture (SK28 melanoma cells),"5-carboxylcytosine levels, TDG inhibitor combined with temozolomide (cancer cells)",cell viability of SK28 cells (SK28 cells),clonogenic capacity of SK28 MEL melanoma cells (SK28 MEL melanoma cells),"proliferation of LNCaP cells, MTS assay [3]","proliferation of PC3 cells, MTS assay [4]","proliferation of LNCaP cells, clonogenic assay [5]","proliferation of PC3 cells, clonogenic assay [6]",relative potency in conventional glycosylase assay (TDG [1]),"inhibition of TDG activity, molecular beacon assay for G:T repair (TDG [7])"
CC[C@]1(O)C[C@H]2CN(CCc3c([nH]c4ccccc34)[C@@](C(=O)OC)(c3cc4c(cc3OC)N(C=O)[C@H]3[C@@](O)(C(=O)OC)[C@H](OC(C)=O)[C@]5(CC)C=CCN6CC[C@]43[C@@H]65)C2)C1 [vincristine],further increased,increase of 5caC levels,–,–,–,–,–,–,–,–,–,–,–,–,–
N.N.[Cl][Pt][Cl] [cisplatin],–,–,reduction of SK28 cell viability,–,–,–,–,–,–,–,–,–,–,–,–
"Cc1cc(C(C#N)c2ccc(Cl)cc2)c(Cl)cc1NC(=O)c1cc(I)cc(I)c1O (stereo not drawn) [Closantel, 5′-Chloro-4′-(4-chloro-α-cyanobenzyl)-3,5-diiodo-2′-methylsalicylanilide, N-[5-Chloro-4-(4-chloro-α-cyanobenzyl)-2-methylphenyl]-2-hydroxy-3,5-diiodobenzamide]",–,–,–,inhibition of TDG activity,inhibition of TDG glycosylase activity in vitro,increase 5caC staining,highly elevated,reduce cell viability,reduction of clonogenic capacity,stopped proliferation,stopped proliferation,stopped proliferation,stopped proliferation,–,–
"C=CC1=C(C(=O)O)N2C(=O)[C@@H](NC(=O)/C(=N\OCC(=O)O)c3csc(N)n3)[C@H]2SC1 [Cefixime, (6R,7R)-7-{[2-(2-amino-1,3-thiazol-4-yl)-2-(carboxymethoxyimino)acetyl]amino}-3-ethenyl-8-oxo-5-thia-1-azabicyclo[4.2.0]oct-2-ene-2-carboxylic acid]",–,–,–,inhibition of TDG activity,–,–,–,reduce cell viability,reduction of clonogenic capacity,–,–,–,–,"more potent than compound 2, closantel",–
"O=C1C=CC(=O)c2c(O)cccc21 [Juglone, 5-hydroxynaphthoquinone]",–,–,–,–,inhibition of TDG glycosylase activity in vitro,increase 5caC staining,highly elevated,reduce cell viability,reduction of clonogenic capacity,stopped proliferation,stopped proliferation,stopped proliferation,stopped proliferation,–,Dose dependent inhibition
